Assay results as given in ChEMBL document CHEMBL1949644, “Synthesis and SAR optimization of quinazolin-4(3H)-ones as poly(ADP-ribose)polymerase-1 inhibitors” (Eur J Med Chem, 2012).

Key:
[1] = target: T1, Poly [ADP-ribose] polymerase 1 (Homo sapiens, UniProt P09874); experiment: Inhibition of PARP1 using TACS-Sapphire substrate for 30 mins by colorimetry
[2] = target: T1, Poly [ADP-ribose] polymerase 1; experiment: Ratio of quinazoline-4(3H)-one IC50 to compound IC50 for PARP1
[3] = target: T1, Poly [ADP-ribose] polymerase 1; experiment: Inhibition of PARP1 at 25 uM using TACS-Sapphire substrate for 30 mins by colorimetry
MEF [4] = experiment: Antiproliferative activity against wild type MEF cells assessed as cell viability after 72 hrs by MTT assay; type: cell-based; details: Mus musculus
MEF [5] = experiment: Antiproliferative activity against MEF cells harboring Brca1 deletion mutant at exon 11 assessed as cell viability after 72 hrs by MTT assay; type: functional, cell-based; details: Mus musculus
MEF [6] = experiment: Ratio of IC50 for wild type MEF cells to MEF cells harboring Brca1 deletion mutant at exon 11; type: functional, Mus musculus

T1 sequence (P09874 whole entry): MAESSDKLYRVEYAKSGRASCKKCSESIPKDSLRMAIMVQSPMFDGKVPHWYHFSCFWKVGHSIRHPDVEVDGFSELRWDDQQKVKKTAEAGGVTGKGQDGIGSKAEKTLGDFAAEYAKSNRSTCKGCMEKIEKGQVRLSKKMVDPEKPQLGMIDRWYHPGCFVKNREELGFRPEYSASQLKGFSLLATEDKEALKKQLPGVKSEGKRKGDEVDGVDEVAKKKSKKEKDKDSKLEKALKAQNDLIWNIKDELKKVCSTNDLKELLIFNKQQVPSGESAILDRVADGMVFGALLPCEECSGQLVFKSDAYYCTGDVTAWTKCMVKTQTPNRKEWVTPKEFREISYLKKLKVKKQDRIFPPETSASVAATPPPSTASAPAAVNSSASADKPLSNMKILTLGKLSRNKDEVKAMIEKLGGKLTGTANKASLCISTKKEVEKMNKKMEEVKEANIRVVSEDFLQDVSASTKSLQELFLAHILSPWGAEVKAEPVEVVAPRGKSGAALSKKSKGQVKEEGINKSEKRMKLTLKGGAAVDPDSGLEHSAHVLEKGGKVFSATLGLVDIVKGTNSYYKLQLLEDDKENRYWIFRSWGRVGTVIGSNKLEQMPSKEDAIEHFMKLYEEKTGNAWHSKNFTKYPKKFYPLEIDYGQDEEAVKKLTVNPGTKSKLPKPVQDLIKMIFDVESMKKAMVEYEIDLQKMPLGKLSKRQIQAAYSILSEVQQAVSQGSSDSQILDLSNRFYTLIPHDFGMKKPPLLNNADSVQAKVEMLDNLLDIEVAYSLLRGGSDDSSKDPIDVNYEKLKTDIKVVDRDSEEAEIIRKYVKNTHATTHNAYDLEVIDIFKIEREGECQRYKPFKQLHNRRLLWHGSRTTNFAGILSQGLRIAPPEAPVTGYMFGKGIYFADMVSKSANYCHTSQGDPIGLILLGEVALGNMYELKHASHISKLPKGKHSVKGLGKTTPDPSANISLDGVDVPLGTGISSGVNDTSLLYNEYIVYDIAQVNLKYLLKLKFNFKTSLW

SMILES | IC50 [1] | inhibition [3] | other results
O=c1[nH]cnc2ccc(I)cc12 | – | 40% | –
Cc1nc2cccc(Cl)c2c(=O)[nH]1 | 1.18 µM | – | –
O=c1[nH]cnc2cc([N+](=O)[O-])ccc12 | – | < 40% | –
O=c1[nH]cnc2cc(F)c(F)cc12 | – | < 40% | –
Cc1nc2c(N)cccc2c(=O)[nH]1 | 0.4 µM | – | IC50 (MEF [4]): > 500 µM; IC50 (MEF [5]): 49 µM; Ratio IC50 (MEF [6]): >10
COc1cc2nc[nH]c(=O)c2cc1OC | – | < 40% | –
O=[N+]([O-])c1ccc2ncnc(O)c2c1 | – | 40% | –
Cc1nc(O)c2cccc(C)c2n1 | 0.49 µM | – | IC50 (MEF [4]): 177 µM; IC50 (MEF [5]): 15.1 µM; Ratio IC50 (MEF [6]): 12
Cc1nc2c(Cl)cccc2c(=O)[nH]1 | 2.65 µM | – | –
O=c1[nH]cnc2cccc(Cl)c12 | 3.19 µM | – | –
Cc1nc2cccc(C)c2c(=O)[nH]1 | 5.31 µM | – | –
Nc1ccc2c(=O)[nH]cnc2c1 | – | < 40% | –
O=[N+]([O-])c1cccc2c(O)ncnc12 | – | < 40% | –
Cc1cc(C)c2nc(C)[nH]c(=O)c2c1 | 13.2 µM | – | –
Cc1cc(C)c2nc[nH]c(=O)c2c1 | 1.39 µM | – | Ratio IC50 [2]: 4
O=c1[nH]cnc2ccc(O)cc12 | – | 40% | –
Cc1nc2cccc(F)c2c(=O)[nH]1 | 1.97 µM | – | –
Oc1ncnc2cc(Cl)ccc12 | – | < 40% | –
O=c1[nH]cnc2ccc([N+](=O)[O-])cc12 | 25 µM | – | –
CN(C)CC(=O)Nc1ccc2[nH]c(=O)c3ccccc3c2c1 [PJ34] | – | – | IC50 (MEF [4]): 19.8 µM; IC50 (MEF [5]): 13.2 µM

Second part, led by results:

IC50 [1] | inhibition [3] | SMILES | other results
9.01 µM | – | O=c1[nH]cnc2ccc(F)cc12 | –
7.04 µM | – | O=c1[nH]cnc2cccc(F)c12 | –
1.32 µM | – | Cc1cccc2c(=O)[nH]cnc12 | Ratio IC50 [2]: 4
18.8 µM | – | O=c1[nH]cnc2c(F)cccc12 | –
25 µM | 40% | Cc1ccc2nc[nH]c(=O)c2c1 | –
– | 40% | Cc1ccc2c(=O)[nH]cnc2c1 | –
– | < 40% | O=c1[nH]cnc2cc(F)ccc12 | –
– | 40% | Cc1cccc2nc[nH]c(=O)c12 | –
0.76 µM | – | Nc1cccc2c(=O)[nH]cnc12 | IC50 (MEF [4]): > 600 µM; IC50 (MEF [5]): > 600 µM
7.5 µM | – | O=c1[nH]cnc2cc(C(F)(F)F)ccc12 | –
5.65 µM | – | O=c1[nH]cnc2c(Cl)cccc12 | –
11 µM | – | O=c1[nH]cnc2ccc(Cl)cc12 | –
– | 40% | Nc1ccc2nc[nH]c(=O)c2c1 | –
– | 40% | O=c1[nH]cnc2c(C(F)(F)F)cccc12 | –
